In patent US20260069728A1, “MULTI-TARGETING COMPOUND AND USE THEREOF” (Chengdu Shetai Medical Technology Co., Ltd., priority 2023, published 2026):
Like-named read-outs stand apart in the source and are kept apart here.

What was measured:
[1] = Isoelectric point (PI) measurement; assay type: physicochemical
[2] = test system: SUM149PT human breast cancer cell line; assay: Cell uptake and inhibition assay, SUM149PT; assay type: cell-based; conditions: for cell uptake, comparison of non-inhibition, FAP single, CXCR4 single and dual inhibition groups (in words): FAPI-04 and T140 as inhibitors; for cell uptake over incubation time (in words): non-inhibition group, 15-120 minutes
Method: (§1) The cell lines involved in the cell experiments in the test examples include: SUM149PT human breast cancer cell line, HUTU-80 human duodenal adenocarcinoma cell line, and U-118 MG human brain astrocytoma/glioblastoma cell line.
(§2) SUM149PT: Complete medium was formulated using DMEM high-glucose medium, 10% FBS, and a penicillin-streptomycin solution. The cells were cultured in a constant temperature incubator at 37° C. with 5% CO2. The culture medium was regularly replaced, and the cells were passaged. The culture medium was generally changed every 2 to 3 days. The growth of the tumor cells was observed daily under a microscope, including monitoring cell growth status, checking for adherence, examining cell morphology for any abnormalities, checking for contamination, and observing medium color for any abnormalities. Cells were passaged when they reached 80-90% confluence.
(§3) When cell confluence in the culture flask reached 80%, the cells were digested and centrifuged, and the supernatant was removed. An appropriate amount of medium was added to dilute so that each well contained 500 μL of medium for plating. After thorough mixing by pipetting, the cell suspension was seeded into a 24-well plate at a density of 5×10^5 cells per well. The plate was then placed into the incubator for continued growth. The cells were ready for cellular experiments when they reached 80% confluence.
(§4) (1) The cell uptake assay established four incubation time points: 15, 30, 60, and 120 minutes, respectively. For each time point, four groups were set up: non-inhibition group, a first single inhibition group (FAP single inhibition), a second single inhibition group (CXCR4/GRPR/αvβ3 single inhibition), and a dual inhibition group (FAP inhibitor+CXCR4/GRPR/αvβ3 inhibitor). Each group at each time point was set up with 3 triplicate wells.
(§5) (2) Cells were plated into a 24-well plate according to the cell plating procedure described above.
(§6) (3) The original culture medium was removed from the 24-well plate. Then, 400 μL of 100 mg/mL skimmed milk solution was added to each well for blocking for one hour. After removing the skimmed milk solution, each of the wells was washed three times by adding 400 μL of PBS solution. Subsequently, 146 μL of FBS-free medium was added to each well. Next, the non-inhibition group received 4 μL of cold PBS per well, while the first single inhibition group, the second single inhibition group, and the dual inhibition group received the following additions per well according to Table 3: 2 μL of non-radiolabeled first single inhibitor solution and 2 μL of cold PBS: 2 μL of non-radiolabeled second single inhibitor solution and 2 μL of cold PBS; 2 μL of non-radiolabeled first single inhibitor solution (10 mM) and 2 μL of non-radiolabeled second single inhibitor solution (10 mM). The plate was incubated at room temperature for one hour.
(§7) (4) The ^68Ga- and ^177Lu-labeled radioactive ligands were formulated by adding FBS-free medium to achieve a radioligand system concentration of 20 nM. Then, 50 μL of this radioligand system was added to each well. Each group was incubated according to the designated time points: 15, 30, 60, and 120 minutes.
(5) After the incubation was complete, the supernatant was removed, and the wells were washed three times with 400 μL of PBS solution. Then, 200 μL of 1 M NaOH solution was added to each well for cell lysis. […] Each well was then washed once with 400 μL of PBS solution, and this wash solution was also added to the corresponding radioimmunoassay tubes.
(6) The radioactivity in the cells was measured using a γ counter. A bar graph was plotted using GraphPad Prism software. The inhibition rate for each inhibition group was calculated as follows: Inhibition Rate (%)=(1−[Radioactive Count of the Inhibition Group]/[Radioactive Count of the Non-inhibition Group])×100%. […]

[3] = test system: SUM149PT human breast cancer cell line; assay: Cell saturation binding assay, SUM149PT; conditions: 68Ga-labeled compound
Method: (§8) (1) For the cell saturation binding assay, a total of 8 radiolabeled ligand concentrations were set at intervals within the anticipated range. For each concentration, there were 3 groups: the non-inhibition group, the first single inhibition group (FAP single inhibition group), and the second single inhibition group (CXCR4/GRPR/αvβ3 single inhibition group). For each concentration and each group, 3 replicate wells were established.
as §5
(§9) (3) The original culture medium was removed from the 24-well plate. Then, 400 μL of 100 mg/mL skimmed milk solution was added to each well for blocking for one hour. After removing the skimmed milk solution, each of wells was washed three times by adding 400 μL of PBS solution. Subsequently, 146 μL of FBS-free medium was added to each well. Next, the non-inhibition group received 4 μL of cold PBS per well, while the first single inhibition group and the second single inhibition group received the following additions per well according to Table 4: 2 μL of non-radiolabeled first single inhibitor solution and 2 μL of cold PBS; 2 μL of non-radiolabeled second single inhibitor solution and 2 μL of cold PBS. The plate was then incubated at room temperature for one hour.
(§10) (4) The ligands were radiolabeled with 68Ga using the labeling method described previously. Different volumes of FBS-free medium were added to formulate the radioligand systems at corresponding concentrations. Then, 50 μL of the corresponding concentration of the radioligand system was added to each well.
(§11) (5) The supernatant was removed, and the wells were washed three times with 400 μL of PBS. 200 μL of IM NaOH solution was added to each well for cell lysis. […] Each well was washed once with 400 μL of PBS solution, and the washings were sequentially added to the corresponding radioimmunoassay tubes.
(§12) (6) Radioactivity in the cells was measured using a γ counter. The equilibrium dissociation constant (KD) was obtained by fitting the curve using nonlinear regression analysis in GraphPad Prism software. KD is the drug concentration that causes half of the maximum effect (50% receptor occupancy).

[4] = test system: U-118 MG human brain astrocytoma/glioblastoma cell line; assay: Cell uptake and inhibition assay, U-118 MG; assay type: cell-based; conditions: for cell uptake over incubation time (in words): all groups, 15-120 minutes; for cell uptake, comparison of non-inhibition, FAP single, integrin αvβ3 single and dual inhibition groups (in words): at 30 minutes, FAPI-04 and RGD as inhibitors
Method: as §1
as §2, with “U-118 MG:” for “SUM149PT:”
as §3, §4, §5, §6, §7
(5) After the incubation was complete, the supernatant was removed, and the wells were washed three times with 400 μL of PBS solution. Then, 200 μL of 1 M NaOH solution was added to each well for cell lysis. […]
(6) The radioactivity in the cells was measured using a γ counter. […]

[5] = test system: U-118 MG human brain astrocytoma/glioblastoma cell line; assay: Cell saturation binding assay, U-118 MG; conditions: 68Ga-labeled compound
Method: as §8, §5, §9, §10, §11, §12

[6] = conclusion from inhibition groups
[7] = FAPI-04 solution, read-out: KD value, First single inhibition group (FAP single inhibition)
[8] = T140 solution (CXCR4 inhibitor), read-out: KD value, Second single inhibition group (CXCR4/GRPR/αvβ3 single inhibition)
[9] = read-out: KD value, Non-inhibition group
[10] = RGD solution (integrin αvβ3 inhibitor), read-out: KD value, Second single inhibition group (CXCR4/GRPR/αvβ3 single inhibition)

| Structure (SMILES) | PI range of series of peaks ([1]; unlabeled compound) | cell uptake, comparison of non-inhibition, FAP single, CXCR4 single and dual inhibition groups (in words) [2] | specific binding to CXCR4 protein (in words) [2, 6] | specific binding to fibroblast activation protein (in words) [2, 6] | cell uptake over incubation time (in words) [2] | KD values / binding affinity to the receptors (in words) [3] | Kd [3, 7] [nM] | Kd [3, 8] [nM] | Kd [3, 9] [nM] | behaviour of sample prepared in pure water during isoelectric point measurement ([1]; pure water) | Main peak's PI ([1]; unlabeled compound) | cell uptake over incubation time (in words) [4] | cell uptake, comparison of non-inhibition, FAP single, integrin αvβ3 single and dual inhibition groups (in words) [4] | KD values / binding affinity to the receptors (in words) [5] | Kd [5, 7] [nM] | Kd [5, 10] [nM] | Kd [5, 9] [nM] | specific binding to fibroblast activation protein and integrin αvβ3 (in words) [4, 6] |
| --- | --- | --- | --- | --- | --- | --- | --- | --- | --- | --- | --- | --- | --- | --- | --- | --- | --- | --- |
| CN1C(=O)[C@@H](Cc2ccc(O)cc2)NC(=O)CNC(=O)[C@H](Cc2ccc3ccccc3c2)NC(=O)[C@H](CCCNC(=N)N)NC(=O)[C@H]1CCCNC(=O)c1ccc(CNC(=O)[C@H](CCCCNC(=O)CN2CCN(CC(=O)O)CCN(CC(=O)O)CCN(CC(=O)O)CC2)NC(=O)CCC(=O)NCCOCCOCC(=O)NCCOCCOCC(=O)N2CCN(CCCOc3ccc4nccc(C(=O)NCC(=O)N5CC(F)(F)C[C@H]5C#N)c4c3)CC2)cc1 [SDYD05, DOTA-FAPI-Pentixafor] | 6.617-7.126 | non-inhibition group exhibited the highest cell uptake, followed by the FAP single inhibition group, while the dual inhibition group showed the lowest uptake rate | can rapidly and efficiently bind specifically to the CXCR4 protein | bind specifically to fibroblast activation protein to a certain extent | slowly increased and reached a plateau from 15 to 120 minutes | relatively low KD values | 0.373 ± 0.035 | 1.99 ± 0.312 | 0.217 ± 0.018 | – | – | – | – | – | – | – | – | – |
| CCCCCC(=O)N[C@@H]1CSCc2cc(CSCCNC(=O)COCCOCCNC(=O)COCCOCCNC(=O)CSC3CC(=O)N(CCC(=O)N[C@H](CCCCNC(=O)CN4CCN(CC(=O)O)CCN(CC(=O)O)CCN(CC(=O)O)CC4)C(=O)NCc4ccc(C(=O)NCCC[C@@H]5C(=O)N[C@@H](CCCNC(=N)N)C(=O)N[C@@H](Cc6ccc7ccccc7c6)C(=O)NCC(=O)N[C@H](Cc6ccc(O)cc6)C(=O)N5C)cc4)C3=O)cc(c2)CSC[C@@H](C(=O)O)NC(=O)[C@H](Cc2ccccc2)NC(=O)[C@H](CCC(N)=O)NC(=O)C([C@@H](C)O)NC(=O)[C@@H]2CCCN2C(=O)[C@@H]2CCCN2C1=O (stereo partly shown) [SDYD06] | – | from high to low, were as follows: non-inhibition group, FAP single inhibition group, CXCR4 single inhibition group, and dual inhibition group | – | – | slowly increased and reached a plateau from 15 to 120 minutes | relatively low KD values | 0.455 ± 0.056 | 0.173 ± 0.012 | 1.41 ± 0.213 | insoluble substance formed | – | – | – | – | – | – | – | – |
| N#C[C@@H]1CC(F)(F)CN1C(=O)CNC(=O)c1ccnc2ccc(OCCCN3CCN(C(=O)[C@H](CCCCNC(=O)CCN4C(=O)CC(SCC(=O)NCCOCCOCCOCCOCCC(=O)NCCCC[C@@H]5NC(=O)[C@@H](Cc6ccc(O)cc6)NC(=O)[C@H](CC(=O)O)NC(=O)CNC(=O)[C@H](CCCNC(=N)N)NC5=O)C4=O)NC(=O)CCC(C(=O)O)N4CCN(CC(=O)O)CCN(CC(=O)O)CCN(CC(=O)O)CC4)CC3)cc12 (stereo partly shown) [SDYD07] | – | – | – | – | – | – | – | – | – | – | 4.809 | increased significantly within the first 15 minutes, and then slowly increased | from high to low, were as follows: non-inhibition group, FAP single inhibition group, integrin αvβ3 single inhibition group, and dual inhibition group | relatively low KD values | 7.1 ± 1.06 | 7.62 ± 0.923 | 10.5 ± 1.87 | – |
| CCCCCC(=O)N[C@H]1CSCc2cc(CSCCNC(=O)[C@H](CCCCNC(=O)CCN3C(=O)CC(SCC(=O)NCCOCCOCCOCCOCCC(=O)NCCCC[C@@H]4NC(=O)[C@@H](Cc5ccc(O)cc5)NC(=O)[C@H](CC(=O)O)NC(=O)CNC(=O)[C@H](CCCNC(=N)N)NC4=O)C3=O)NC(=O)CCC(C(=O)O)N3CCN(CC(=O)O)CCN(CC(=O)O)CCN(CC(=O)O)CC3)cc(c2)CSC[C@@H](C(=O)O)NC(=O)[C@H](Cc2ccccc2)NC(=O)[C@H](CCC(N)=O)NC(=O)C([C@@H](C)O)NC(=O)[C@@H]2CCCN2C(=O)[C@@H]2CCCN2C1=O (stereo partly shown) [SDYD08] | – | – | – | – | – | – | – | – | – | – | 2.916 | increased significantly within the first 15 minutes | from high to low, were as follows: non-inhibition group, FAP single inhibition group, integrin αvβ3 single inhibition group, and dual inhibition group | relatively low KD values | 7.12 ± 0.558 | 10.5 ± 1.06 | 8.43 ± 0.475 | can specifically bind to fibroblast activation protein and integrin αvβ3 |
